{
  "source": "paper PMC6234229",
  "about": "“The role of loops B and C in determining the potentiation of GABAA receptors by midazolam” (Pharmacology Research & Perspectives, 2018)",
  "origin": "cited, not measured here",
  "key": {"[1]": {"system": "α6‐containing GABAA receptors", "details": "cited from earlier work"}, "[2]": {"system": "α3β1γ2 receptors", "set-up": "method as in PMID 1646944, PMID 8381510", "details": "cited from earlier work"}},
  "data": [
    {"smiles": "CC#CCOC(=O)c1c(C)nc2sc3c(c2c1N)CCC(O)C3", "note": "(stereo not drawn) [SB‐205384]", "values": [
      {"measurement": "potentiation of α6‐ vs α3‐containing GABAA receptors", "setting": "[1]", "result": "potentiate α6‐containing GABAA receptors even more strongly than α3"}
    ]},
    {"smiles": "CN1C(=O)CN=C(c2ccccc2)c2cc(Cl)ccc21", "note": "[diazepam]", "values": [
      {"measurement": "potentiation of α3β1γ2 vs α1β1γ2 receptors", "setting": "[2]", "result": "potentiated α3β1γ2 receptors more than α1β1γ2 receptors"}
    ]},
    {"smiles": "CN1C(=O)CN=C(c2ccccc2F)c2cc([N+](=O)[O-])ccc21", "note": "[flunitrazepam]", "values": [
      {"measurement": "potentiation of α3β1γ2 vs α1β1γ2 receptors", "setting": "[2]", "result": "potentiated α3β1γ2 receptors more than α1β1γ2 receptors"}
    ]}
  ]
}
